These compounds were tested against human CB2R (Homo sapiens, UniProt P34972) (assay: CB2R mediated modulation of cAMP synthesis). Details: not given.
Format: cell-based
Experimental: B. CB2R Mediated Modulation of cAMP Synthesis:
Compounds of the invention were evaluated for their CB2 agonist or inverse agonistic activity in accordance with the following experimental method.
CHO cells expressing human CB2R (Euroscreen) were plated at a density of 5000 cells per well in 384 well plates and incubated overnight at 37° C. After removing the media, the cells were treated with test compounds diluted in stimulation buffer containing 1 mM IBMX, 0.25% BSA and 10 uM Forskolin. The assay was incubated for 30 minutes at 37° C. Cells were lysed and the cAMP concentration was measured using DiscoverX-XS cAMP kit, following the manufacturer's protocol. In this setting, agonists will decrease forskolin induced production of cAMP while inverse agonists will further increase forskolin induced production of cAMP. EC50 of agonists were calculated as follows. The maximal amount of cAMP produced by forskolin compared to the level of cAMP inhibited by 1 uM CP55940 is defined as 100%. […] Data was analyzed using a four-parameter logistic model. (Model 205 of XLfit 4.0).

human CB2R, sequence (P34972 whole entry): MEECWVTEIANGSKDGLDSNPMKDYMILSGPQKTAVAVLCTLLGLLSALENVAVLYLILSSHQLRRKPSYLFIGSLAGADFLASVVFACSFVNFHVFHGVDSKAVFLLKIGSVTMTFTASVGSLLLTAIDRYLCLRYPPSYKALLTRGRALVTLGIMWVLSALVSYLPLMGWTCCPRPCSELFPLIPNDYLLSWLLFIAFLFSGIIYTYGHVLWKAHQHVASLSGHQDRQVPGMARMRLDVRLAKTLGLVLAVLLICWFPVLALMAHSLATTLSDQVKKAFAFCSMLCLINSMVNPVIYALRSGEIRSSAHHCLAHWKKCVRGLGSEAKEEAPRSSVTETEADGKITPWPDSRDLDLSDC

Structure (SMILES) | EC50 [nM]
CC(C)(C)c1cc(NC(=O)[C@@H]2CCCN2C(=O)N2CCS(=O)(=O)CC2)on1 | 97.1
CCC(C)c1ccc(NC(=O)[C@@H]2CCC(=O)N2c2ncc(C(F)(F)F)cc2Cl)cc1 (stereo partly shown) | 28.1
O=C(NCCN1CCN(c2nccc(C(F)(F)F)n2)CC1)[C@@H]1CCCN1c1ccc(Cl)cc1 | 381
CC(C)(C)c1nnc(NC(=O)[C@@H]2CCCN2C2CCCC2(C)C)s1 (stereo partly shown) [1-(2,2-Dimethyl-cyclopentyl)-pyrrolidine-2-carboxylic acid (5-tert-butyl-1,3,4-thiadiazol-2-yl)-amide] | 445
CC1(C)CC(CN2CCCC2C(=O)Nc2cc(C(C)(C)C)no2)CCO1 (stereo not shown) [1-(2,2-Dimethyl-tetrahydro-pyran-4-ylmethyl)-pyrrolidine-2-carboxylic acid (3-tert-butyl-isoxazol-5-yl)-amide] | 7.1
CC1CCCCC1N1CCC[C@H]1C(=O)Nc1nnc(C(C)(C)C)s1 (stereo partly shown) [1-(2-Methyl-cyclohexyl)-pyrrolidine-2-carboxylic acid (5-tert-butyl-1,3,4-thiadiazol-2-yl)-amide] | 255
Cn1nc(C(C)(C)C)cc1NC(=O)C1CCCN1c1ncc(C(F)(F)F)cc1Cl (stereo not shown) [1-(3-Chloro-5-trifluoromethyl-pyridin-2-yl)-pyrrolidine-2-carboxylic acid (5-tert-butyl-2-methyl-2H-pyrazol-3-yl)-amide] | 112
CC(C)(C)c1cc(NC(=O)C2CCCN2c2ncc(C(F)(F)F)cc2Cl)no1 (stereo not shown) [1-(3-Chloro-5-trifluoromethyl-pyridin-2-yl)-pyrrolidine-2-carboxylic acid (5-tert-butyl-isoxazol-3-yl)-amide] | 0.0402
CC(C)(C)c1cc(NC(=O)C2CCCN2c2ccc(Cl)cn2)no1 (stereo not shown) [1-(5-Chloro-pyridin-2-yl)-pyrrolidine-2-carboxylic acid (5-tert-butyl-isoxazol-3-yl)-amide] | 0.364
O=C(Nc1ccc(C(F)(F)F)cn1)C1CCCN1c1ccc(C(F)(F)F)cn1 (stereo not shown) [1-(5-Trifluoromethyl-pyridin-2-yl)-pyrrolidine-2-carboxylic acid (5-trifluoromethyl-pyridin-2-yl)-amide] | 328
CC(C)(C)c1cc(NC(=O)[C@@H]2CCCN2CC2CCCCO2)on1 (stereo partly shown) [1-(Tetrahydro-pyran-2-ylmethyl)-pyrrolidine-2-carboxylic acid (3-tert-butyl-isoxazol-5-yl)-amide] | 0.172
CC(C)N1CCCC1C(=O)Nc1cc(C(C)(C)C)on1 (stereo not shown) [1-isopropyl-pyrrolidine-2-carboxylic acid (5-tert-butyl-isoxazol-3-yl)-amide] | 30.3
CCC(C)N1CCC[C@H]1C(=O)Nc1nnc(C(C)(C)C)s1 (stereo partly shown) [1-sec-Butyl-pyrrolidine-2-carboxylic acid (5-tert-butyl-1,3,4-thiadiazol-2-yl)-amide] | 390
CC(C)(C)c1cc(NC(=O)[C@@H]2C[C@@H](O)CN2Cc2ccc(F)c(F)c2)on1 [(2S,4R)-1-(3,4-Difluoro-benzyl)-4-hydroxy-pyrrolidine-2-carboxylic acid (3-tert-butyl-isoxazol-5-yl)-amide] | 6.88
CC(C)(C)c1cc(NC(=O)[C@@H]2C[C@@H](O)CN2Cc2ccc(F)c(F)c2)no1 [(2S,4R)-1-(3,4-Difluoro-benzyl)-4-hydroxy-pyrrolidine-2-carboxylic acid (5-tert-butyl-isoxazol-3-yl)-amide] | 12.3
CC(C)(C)c1cc(NC(=O)[C@@H]2C[C@@H](O)CN2c2ncc(C(F)(F)F)cc2Cl)on1 [(2S,4R)-1-(3-Chloro-5-trifluoromethyl-pyridin-2-yl)-4-hydroxy-pyrrolidine-2-carboxylic acid (3-tert-butyl-isoxazol-5-yl)-amide] | 3.25
CC(C)(C)c1cc(NC(=O)[C@@H]2C[C@@H](O)CN2c2ncc(C(F)(F)F)cc2Cl)no1 [(2S,4R)-1-(3-Chloro-5-trifluoromethyl-pyridin-2-yl)-4-hydroxy-pyrrolidine-2-carboxylic acid (5-tert-butyl-isoxazol-3-yl)-amide] | 5.04

Structure (SMILES) | EC50 [nM]
CC(C)(C)c1cc(NC(=O)[C@@H]2C[C@@H](O)CN2c2ccc(Cl)cc2)no1 [(2S,4R)-1-(4-Chloro-phenyl)-4-hydroxy-pyrrolidine-2-carboxylic acid (5-tert-butyl-isoxazol-3-yl)-amide] | 14.4
CC(C)(CO)c1cc(NC(=O)[C@@H]2C[C@@H](O)CN2c2ccc(Cl)cc2)on1 [(2S,4R)-1-(4-Chloro-phenyl)-4-hydroxy-pyrrolidine-2-carboxylic acid [3-(2-hydroxy-1,1-dimethyl-ethyl)-isoxazol-5-yl]-amide] | 196
COCC(C)(C)c1cc(NC(=O)[C@@H]2C[C@@H](O)CN2c2ccc(Cl)cc2)on1 [(2S,4R)-1-(4-Chloro-phenyl)-4-hydroxy-pyrrolidine-2-carboxylic acid [3-(2-methoxy-1,1-dimethyl-ethyl)-isoxazol-5-yl]-amide] | 87
COCC(C)(C)c1cc(NC(=O)[C@@H]2C[C@@H](O)CN2c2ccc(Cl)cc2)no1 [(2S,4R)-1-(4-Chloro-phenyl)-4-hydroxy-pyrrolidine-2-carboxylic acid [5-(2-methoxy-1,1-dimethyl-ethyl)-isoxazol-3-yl]-amide] | 80.9
CC(C)(C)c1cc(NC(=O)[C@@H]2C[C@@H](O)CN2C2CCCCC2)no1 [(2S,4R)-1-Cyclohexyl-4-hydroxy-pyrrolidine-2-carboxylic acid (5-tert-butyl-isoxazol-3-yl)-amide] | 4.69
CC(C)(C)c1cc(NC(=O)[C@@H]2C[C@@H](O)CN2C2CCCC2)on1 [(2S,4R)-1-Cyclopentyl-4-hydroxy-pyrrolidine-2-carboxylic acid (3-tert-butyl-isoxazol-5-yl)-amide] | 61.9
CC(C)(C)c1cc(NC(=O)[C@@H]2C[C@@H](O)CN2C2CCCC2)no1 [(2S,4R)-1-Cyclopentyl-4-hydroxy-pyrrolidine-2-carboxylic acid (5-tert-butyl-isoxazol-3-yl)-amide] | 23.2
O=C(Nc1nc(-c2ccccc2)ns1)[C@@H]1C[C@@H](O)CN1c1ccc(C(F)(F)F)cn1 [(2S,4R)-4-Hydroxy-1-(5-trifluoromethyl-pyridin-2-yl)-pyrrolidine-2-carboxylic acid (3-phenyl-1,2,4-thiadiazol-5-yl)-amide] | 357
CC(C)(C)c1cc(NC(=O)[C@@H]2C[C@@H](O)CN2c2ccc(C(F)(F)F)cn2)on1 [(2S,4R)-4-Hydroxy-1-(5-trifluoromethyl-pyridin-2-yl)-pyrrolidine-2-carboxylic acid (3-tert-butyl-isoxazol-5-yl)-amide] | 0.433
CC(C)(C)c1cc(NC(=O)[C@@H]2C[C@@H](O)CN2c2ccc(C(F)(F)F)cn2)no1 [(2S,4R)-4-Hydroxy-1-(5-trifluoromethyl-pyridin-2-yl)-pyrrolidine-2-carboxylic acid (5-tert-butyl-isoxazol-3-yl)-amide] | 161
CC(C)(C)c1cc(NC(=O)[C@@H]2C[C@@H](O)CN2C2CCOCC2)on1 [(2S,4R)-4-Hydroxy-1-(tetrahydro-pyran-4-yl)-pyrrolidine-2-carboxylic acid (3-tert-butyl-isoxazol-5-yl)-amide] | 328
CCc1sc(NC(=O)[C@@H]2C[C@@H](O)CN2C2CCOCC2)nc1-c1ccccc1 [(2S,4R)-4-Hydroxy-1-(tetrahydro-pyran-4-yl)-pyrrolidine-2-carboxylic acid (5-ethyl-4-phenyl-thiazol-2-yl)-amide] | 58.7
CC(C)(C)c1cc(NC(=O)[C@@H]2C[C@@H](O)CN2C2CCOCC2)no1 [(2S,4R)-4-Hydroxy-1-(tetrahydro-pyran-4-yl)-pyrrolidine-2-carboxylic acid (5-tert-butyl-isoxazol-3-yl)-amide] | 363
CC1CC(NC(=O)[C@@H]2C[C@@H](O)CN2CC2CCOCC2)CC(C)(C)C1 (stereo partly drawn) [(2S,4R)-4-Hydroxy-1-(tetrahydro-pyran-4-ylmethyl)-pyrrolidine-2-carboxylic acid (3,3,5-trimethyl-cyclohexyl)-amide] | 219
O=C(Nc1nc(-c2ccccc2)ns1)[C@@H]1C[C@@H](O)CN1CC1CCOCC1 [(2S,4R)-4-Hydroxy-1-(tetrahydro-pyran-4-ylmethyl)-pyrrolidine-2-carboxylic acid (3-phenyl-1,2,4-thiadiazol-5-yl)-amide] | 303
O=C(Nc1nc(C2CCCCC2)cs1)[C@@H]1C[C@@H](O)CN1CC1CCOCC1 [(2S,4R)-4-Hydroxy-1-(tetrahydro-pyran-4-ylmethyl)-pyrrolidine-2-carboxylic acid (4-cyclohexyl-thiazol-2-yl)-amide] | 150

Same assay, conditions: CHO cells expressing human CB2R; inhibition of forskolin-stimulated cAMP synthesis; mean; read-out: CB2 CAMP @ EC50 nM (mean)

EC50 [nM] | Structure (SMILES)
23.2 | O=C(Nc1ccc(C(F)(F)F)cn1)C1CCCN1c1ncc(C(F)(F)F)cc1Cl (stereo not shown) [1-(3-Chloro-5-trifluoromethyl-pyridin-2-yl)-pyrrolidine-2-carboxylic acid (5-trifluoromethyl-pyridin-2-yl)-amide]
432 | O=C(NCC1CCCCC1)[C@@H]1C[C@@H](O)CN1C(=O)C1CCC(F)(F)CC1 [(2S,4R)-1-(4,4-Difluoro-cyclohexanecarbonyl)-4-hydroxy-pyrrolidine-2-carboxylic acid cyclohexylmethyl-amide]
248 | CCCc1cc(NC(=O)[C@@H]2C[C@@H](O)CN2CC2CCOCC2)on1 [(2S,4R)-4-Hydroxy-1-(tetrahydro-pyran-4-ylmethyl)-pyrrolidine-2-carboxylic acid (3-propyl-isoxazol-5-yl)-amide]

Structure (SMILES) | EC50 [nM]
CC(C)(C)OC(=O)CCN1CCC[C@H]1C(=O)Nc1cc(C(C)(C)C)no1 [3-[(S)-2-(3-tert-Butyl-isoxazol-5-ylcarbamoyl)-pyrrolidin-l-yl]-propionic acid tert-butyl ester] | 20

— US8629157B2, “Pyrrolidine compounds which modulate the CB2 receptor” (Boehringer Ingelheim International GmbH, priority 2009, dated 2014)
